ChEMBL document CHEMBL3124785, “Discovery of 2-(1H-indazol-1-yl)-thiazole derivatives as selective EP(1) receptor antagonists for treatment of overactive bladder by core structure replacement” (Bioorg Med Chem Lett, 2014)
Converted amounts (≈) assume the structure as drawn.

Experiments:
[1] = Solubility of the compound at pH 6.8; type: physicochemical; details: buffer
[2] = Apparent permeability in MDCK cells; type: ADME, cell-based, Canis lupus familiaris; details: dog
[3] = Oral bioavailability in rat at 10 mg/kg; type: ADME, organism-based; details: in vivo
[4] = Cmax in rat at 10 mg/kg, po; type: ADME, organism-based; parameters: dose 10 mg/kg, route oral; details: in vivo
[5] = AUC (0 to infinity) in rat at 10 mg/kg, po; type: ADME, organism-based; parameters: time infinity, dose 10 mg/kg, route oral; details: plasma
[6] = Solubility of the compound in water; type: physicochemical

solubility [1]: 123 µg/mL (≈ 316 µM)
Papp [2]: 17.8 ×10⁻⁶ cm/s
bioavailability [3]: 31%
Cmax [4]: 5.34 µM
AUC(0-inf) [5]: 9.27 µM·h
solubility [6]: 37 µg/mL (≈ 95 µM)
SMILES: O=C(O)c1csc(-n2nc(-c3ccccc3)c3ccc(C(F)(F)F)cc32)n1
